Measurements from PubChem BioAssay AID540252 (Sanford-Burnham Center for Chemical Genomics, 2011).
The source made the active and inactive calls. The rule behind the calls is not given here.

Molecular target: glucose-6-phosphate dehydrogenase-6-phosphogluconolactonase (Plasmodium falciparum 3D7)
Test: PfG6PD enzyme inhibitors, direct NADPH readout, dose response, orthogonal assay, biochemical, end-point NADPH detection (AID 540252)
Conditions: purified PfG6PD enzyme

| Structure (SMILES) | IC50 |
| --- | --- |
| O=C(OCC(=O)c1ccc([N+](=O)[O-])cc1)/C(=C\c1ccc(Cl)cc1)NC(=O)c1ccccc1 | > 80 µM (inactive) |
| Cc1cccc(C2(c3cccc(C)c3)CC2C(=O)Nc2ccc([N+](=O)[O-])cc2O)c1 (centres undefined) | > 80 µM (inactive) |
| CC(CNc1ccccc1O)C(=O)O (centres undefined) | > 80 µM (inactive) |
| Cc1cc(C)c(NC(=S)NCC2CCN(C(C)c3ccccc3)C2)c(C)c1 (centres undefined) | 64.1 µM |
| O=C(CCC(=O)Nc1ccccc1Cl)N/N=C/c1ccccc1 | > 80 µM (inactive) |
| Cc1ccc(S(=O)(=O)SC/C=C/CSS(=O)(=O)c2ccc(C)cc2)cc1 | 64.4 µM |
| COc1ccc(N=C2C(=S)N(c3ccc(OC)cc3)C(=NS(=O)(=O)c3ccccc3)N2c2ccccc2)cc1 | > 80 µM (inactive) |
| CN(C)c1ccc(C=c2c3cc([N+](=O)[O-])ccc3n3c2cc(-c2ccccc2)[n+]3C)cc1 | 33.2 µM |
| CCOc1cc(CNc2ccc(N3CCCC3)cc2)cc(Cl)c1OC | > 80 µM (inactive) |
| O=C1NC(=O)C(=Cc2ccc(-c3ccccc3[N+](=O)[O-])o2)C(=O)N1 | > 80 µM (inactive) |
| CCCCC1C(=O)N(c2ccccc2)N(c2ccc(O)cc2)C1=O (centres undefined) | > 80 µM (inactive) |
| CC(SCC(=O)Nc1ccccc1)c1nc2ccccc2c(=O)[nH]1 (centres undefined) | > 80 µM (inactive) |
| CC1(C)CN(c2ccccc2)N(C(=O)c2ccc(C#N)cc2)C1=O | > 80 µM (inactive) |
| CN1CCc2cccc3c2[C@@H]1Cc1ccc(O)c(O)c1-3 | > 80 µM (inactive) |
| O=C1C=CC(=O)N1c1ccc2c(c1)C(NC(=O)C(F)(F)F)c1ccccc1-2 (centres undefined) | 20 µM |
| CCCN1CCc2cccc3c2[C@H]1Cc1ccc(O)c(O)c1-3 | > 80 µM (inactive) |
| COc1cccc(-c2c(C(=O)N/N=C/c3ccc(C)s3)nnn2-c2nonc2N)c1 | > 80 µM (inactive) |
| Cc1cc(C)c2c(=O)n(CC(=O)Nc3ccc(Cl)cc3)sc2n1 | > 80 µM (inactive) |
| Cn1cc(S(=O)(=O)CC(=O)N2CCc3ccccc32)c2ccccc21 | > 80 µM (inactive) |
| CCC(=O)OCCNc1cc(Sc2nc3ccccc3s2)c2nonc2c1[N+](=O)[O-] | > 80 µM (inactive) |
| COc1cc(N)c2ncccc2c1OC | > 80 µM (inactive) |
| O=c1c2ccccc2sn1-c1ccc(Cl)cc1 | 17.2 µM |
| CC(=O)Nc1ccc(S(=O)(=O)NNc2cccc(C)c2)cc1 | > 80 µM (inactive) |
| COc1cc(N(C)C)ccc1C=c1c2ccccc2n2c1cc(-c1ccccc1)[n+]2C | > 80 µM (inactive) |
| CCn1c(=O)n(CC)c2cc(N3CCCC3)c(NC(=O)c3cccc(C)c3)cc21 | > 80 µM (inactive) |
| O=C1NC(=O)N(c2ccccc2)C(=O)/C1=C/c1ccc([N+](=O)[O-])s1 | > 80 µM (inactive) |

| Structure (SMILES) | IC50 |
| --- | --- |
| CCC(c1ccc(O)c(O)c1)C(CC)c1ccc(O)c(O)c1 (centres undefined) | > 80 µM (inactive) |
| Cc1cc(N=NC(=O)c2ccccc2O)c2ccccc2c1O | > 80 µM (inactive) |
| CN=c1scc(C)n1/N=C/c1ccc(O)c(O)c1O | > 80 µM (inactive) |
| COc1ccc(-n2sc3ccccc3c2=O)cc1 | 13.3 µM |
| COc1cccc(C(=O)Nc2nnc(C(C)C)s2)c1 | > 80 µM (inactive) |
| O=C(Nc1ccccc1C(=O)N/N=C/c1ccco1)c1ccccc1Cl | > 80 µM (inactive) |
| CCOC(=O)c1cnc2ccc(C)cc2c1Sc1ccccc1C(=O)OC | > 80 µM (inactive) |
| CCOC(=O)c1sc(NC(=O)CSc2nnc(Cc3ccccc3)o2)c(C#N)c1C | > 80 µM (inactive) |
| CC1=CC(C)(C)Nc2ccc(OC(=O)CN3C(=O)c4cccc5cccc(c45)C3=O)cc21 | > 80 µM (inactive) |
| O=C(N/N=C/c1cccc([N+](=O)[O-])c1)C(=O)N1CCCCCC1 | > 80 µM (inactive) |
| CC(C)(C)NC(=O)COc1ccc(CNc2ccc3[nH]c(=O)[nH]c3c2)cc1 | > 80 µM (inactive) |
| N#Cc1ccc(N=c2ssnc2Cl)cc1 | 49 µM |
| Cc1cc(C)c2c(=O)n(CC(=O)Nc3cccc(Cl)c3C)sc2n1 | > 80 µM (inactive) |
| Cc1ccsc1/C=N/NC(=O)c1cccc(S(=O)(=O)Nc2ccccc2Cl)c1 | > 80 µM (inactive) |
| CN1CCN(C(=O)c2sc(=S)n(-c3ccccc3)c2N)CC1 | 54.6 µM |
| O=c1c2ccccc2sn1-c1ccc(S(=O)(=O)N2CCCC2)cc1 | 36.6 µM |
| Cc1ccc(Cl)cc1NC1=C/C(=N\S(=O)(=O)c2cccs2)c2ccccc2C1=O | > 80 µM (inactive) |
| Cc1nnc(SCC(=O)c2cc(C)n(-c3ccc4c(c3)OCO4)c2C)s1 | > 80 µM (inactive) |
| CC(C)(C)c1ccc(C(=O)Nc2sc3c(c2C(=O)O)CCC3)cc1 | > 80 µM (inactive) |
| CCOC(=O)c1c(C)n(-c2ccc(C)cc2)c2c(C(C(C)=O)C(=O)O)c(Br)c(O)c(O)c12 (centres undefined) | > 80 µM (inactive) |
| O=C(Cn1sc2ccccc2c1=O)NC12CC3CC(CC(C3)C1)C2 | 15.1 µM |
| c1ccc(OCc2nnc3n2N=C(c2ccccc2)CS3)cc1 | > 80 µM (inactive) |
| Cc1cc(C)nc(NC(N)=NCCc2ccccc2)n1 | > 80 µM (inactive) |
| CN(C)c1ccc(C=c2c3ccccc3n3c2c2ccccc2[n+]3C)cc1 | > 80 µM (inactive) |
| CN1CCN(C(=S)c2ccc([N+](=O)[O-])cc2)CC1 | 65.5 µM |
| N#CC(C#N)=C1C=CC=CN1/C(=C\c1ccccc1Cl)C(=O)c1ccccc1 | > 80 µM (inactive) |

| Structure (SMILES) | IC50 |
| --- | --- |
| ClC(Cl)(c1nnnn1-c1ccccc1)c1nnnn1-c1ccccc1 | 56.2 µM |
| COc1cc(-c2cc(OC)c(O)c(OC)c2)cc(OC)c1O | > 80 µM (inactive) |
| Cc1ccc(-c2c(C(=O)N/N=C/c3ccsc3)nnn2-c2nonc2N)cc1 | > 80 µM (inactive) |
| CNCc1ccccc1Sc1cc(O)ccc1O | > 80 µM (inactive) |
| CC(=O)Nc1cc(OC(C)=O)c2nonc2c1OC(C)=O | > 80 µM (inactive) |
| Clc1cccc(Cl)c1CNc1ccc(N2CCCC2)cc1 | > 80 µM (inactive) |
| Cc1nnc(Sc2cc(NCCO)c([N+](=O)[O-])c3nonc23)s1 | 53.1 µM |
| COc1cc(C(=O)ON=C2C=C(C)C(=O)C(C)=C2)cc(OC)c1OC | > 80 µM (inactive) |
| O=C(Nc1nnc(C2CC2)s1)c1ccc(Cl)nc1 | > 80 µM (inactive) |
| Cc1ccccc1-n1sc2cc(F)ccc2c1=O | 8.11 µM |
| OCCN1CCN(C(=S)c2ccc(-c3ccccc3)cc2)CC1 | > 80 µM (inactive) |
| C=CCc1ccccc1OCC(=O)N/N=C/c1ccccc1OCC | > 80 µM (inactive) |
| [O-]/[N+](=C\c1ccncc1)c1ccccc1 | > 80 µM (inactive) |
| Cc1ccc(NC(=O)c2cc(C)n(-c3ccccc3)c2C)cc1 | > 80 µM (inactive) |
| CCn1c2ccccc2c2nc3cc(S(=O)(=O)N4CCOCC4)ccc3nc21 | > 80 µM (inactive) |
| COc1cc(N)c2ncccc2c1SC | > 80 µM (inactive) |
| CN(C)c1ncc(C2=C(Cl)C(=O)C(N3CCCC3)=C(Cl)C2=O)s1 | > 80 µM (inactive) |
| CCOc1ccccc1CNc1ccc(O)cc1 | > 80 µM (inactive) |
| CN1CCN(C(=S)C(=O)Nc2ccc(Br)cc2)CC1 | 67.9 µM |
| C[C@]12CC[C@@H]3c4cc(O)c(O)cc4CC[C@H]3[C@@H]1CC[C@@H]2O | 38 µM |
| CN(C)c1cccc2c1c(NC(=O)c1ccc(Cl)cc1)nn2C | > 80 µM (inactive) |
| [O-]/[N+](=C/c1cccnc1)c1ccc(Br)cc1 | > 80 µM (inactive) |
| Cc1nnc(N/N=C\c2ccc(-c3cccc(C(=O)O)c3)o2)n1N | > 80 µM (inactive) |
| CCCNC(=O)Cn1sc2nc(C)cc(C)c2c1=O | > 80 µM (inactive) |
| N#Cc1ccc2sn(-c3ccccc3)c(=O)c2c1 | 15.2 µM |
| Cn1sc2ccccc2c1=O | 52.3 µM |

| Structure (SMILES) | IC50 |
| --- | --- |
| c1cc(CNc2ccc3c(c2)OCO3)ccn1 | > 80 µM (inactive) |
| Cc1ccc(/C=C/C(=O)Nc2ccc([N+](=O)[O-])c(NC(=O)/C=C/c3ccc(C)o3)c2)o1 | 33.6 µM |
| CCOC(=O)CSc1nnc(NC(=O)c2cccc([N+](=O)[O-])c2)s1 | > 80 µM (inactive) |
| c1ccc(-c2nc(N3CCOCC3)s[n+]2-c2ccccc2)cc1 | > 80 µM (inactive) |
| C/C(Cn1nnc([N+](=O)[O-])n1)=N\NC(=O)c1ccccc1O | > 80 µM (inactive) |
| O=C(NCCCN1CCOCC1)c1sc2cc([N+](=O)[O-])ccc2c1Cl | 49.2 µM |
| CCc1nnc(NC(=O)c2ccc(Cl)nc2)s1 | > 80 µM (inactive) |
| COc1cc(/C=N/n2cc(-c3ccccc3)[nH]c2=S)cc(OC)c1O | > 80 µM (inactive) |
| Cc1cnc(C=NNC(N)=S)c2cccc(N)c12 | > 80 µM (inactive) |
| O=C1CCC[C@@H]2[C@@H](Cc3ccccc3)[C@H](N3CCN(c4ccccc4)CC3)C[C@@H]3CCN1[C@@H]32 | > 80 µM (inactive) |
| CC(=O)c1cccc(NC(=O)c2cnn(-c3ccccc3)c2C)c1 | > 80 µM (inactive) |
| O=c1c2ccccc2sn1-c1cc(S(=O)(=O)N2CCOCC2)ccc1N1CCCC1 | 15.1 µM |
| Cn1c(=O)[nH]c(=O)c2c1[nH]c(=S)n2CCCc1ccccc1 | 66.1 µM |
| O=C(Cn1sc2ccccc2c1=O)Nc1ccc(Cl)cc1 | 15.2 µM |
| CN(C)S(=O)(=O)c1cccc(-n2sc3ccccc3c2=O)c1 | 13.5 µM |
| O=C(Cn1sc2ccccc2c1=O)Nc1ccccc1 | 15.6 µM |
| Cc1[nH]c(=S)c(C#N)c(C)c1CCC#N | > 80 µM (inactive) |
| Cc1ccc(-c2c(C(=O)N/N=C/c3ccc(C)o3)nnn2-c2nonc2N)cc1 | > 80 µM (inactive) |
| O=[N+]([O-])c1cccc(SSc2cccc([N+](=O)[O-])c2)c1 | 45.3 µM |
| CCN(CC)c1ccc(NC(=O)c2cccc(C)c2)cc1S(=O)(=O)Nc1ccccc1OC | > 80 µM (inactive) |
| Cc1ccc(SC2=C(Sc3ccc(C)cc3)C(=O)c3ccccc3C2=O)cc1 | > 80 µM (inactive) |
| Oc1cc(CNCc2ccccc2)c(O)cc1CNCc1ccccc1 | > 80 µM (inactive) |
| CN(C)c1ccc(Cc2cc3c(O)ccc(O)c3cc(Cc3ccc(N(C)C)cc3)c2=O)cc1 | > 80 µM (inactive) |
| CN=c1nc(-c2ccccc2)n(-c2ccccc2)s1 | 13.3 µM |
| Cc1cccc(C(=O)Nc2nnc(S(=O)(=O)N3CCCCCC3)s2)c1 | > 80 µM (inactive) |
| COc1ccc(/C=C/c2nc3ccccc3n2Cc2ccc(OC)c(OC)c2)cc1 | > 80 µM (inactive) |
